What was measured:
Experiment in all cases: relative viability (nuclei count vs DMSO), 5 days (fraction); higher = more cells survive
AZD8055 + Tozasertib = compound: COc1ccc(-c2ccc3c(N4CCOC[C@@H]4C)nc(N4CCOC[C@@H]4C)nc3n2)cc1CO [AZD8055] + Cc1cc(Nc2cc(N3CCN(C)CC3)nc(Sc3ccc(NC(=O)C4CC4)cc3)n2)n[nH]1 [Tozasertib] (partner 0.1 µM)
Outline: (§1)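 A single step with final 0.05% Triton X-100, 1% formaldehyde and 1 ug/ml Hoechst fixed the cells and stained nuclei 5 days after treatment. Lung cancer cell lines in 1536-well plates had been treated by pin tool the day after seeding with one drug alone or a fixed anchor-drug dose plus five library-drug doses (not always all listed) in √10 steps, and nuclei were counted on 4× images. Relative viability is the ratio of nuclei in treated wells to nuclei in vehicle wells, taken as the median of duplicate plates.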

AZD8055 + Foretinib = compound: COc1ccc(-c2ccc3c(N4CCOC[C@@H]4C)nc(N4CCOC[C@@H]4C)nc3n2)cc1CO [AZD8055] + COc1cc2c(Oc3ccc(NC(=O)C4(C(=O)Nc5ccc(F)cc5)CC4)cc3F)ccnc2cc1OCCCN1CCOCC1 [Foretinib] (partner 0.25 µM)
Outline: as §1

AZD8055 + AZD7762 = compound: COc1ccc(-c2ccc3c(N4CCOC[C@@H]4C)nc(N4CCOC[C@@H]4C)nc3n2)cc1CO [AZD8055] + NC(=O)Nc1cc(-c2cccc(F)c2)sc1C(=O)N[C@H]1CCCNC1 [AZD7762] (partner 0.2 µM)
Outline: as §1

AZD8055 + Luminespib = compound: COc1ccc(-c2ccc3c(N4CCOC[C@@H]4C)nc(N4CCOC[C@@H]4C)nc3n2)cc1CO [AZD8055] + CCNC(=O)c1noc(-c2cc(C(C)C)c(O)cc2O)c1-c1ccc(CN2CCOCC2)cc1 [Luminespib] (partner 0.01 µM)
Outline: as §1

Cell Line	relative viability (AZD8055 + Tozasertib; first compound 0.01 µM)	relative viability (AZD8055 + Tozasertib; first compound 0.03162 µM)	relative viability (AZD8055 + Tozasertib; first compound 0.1 µM)	relative viability (AZD8055 + Tozasertib; first compound 0.3162 µM)	relative viability (AZD8055 + Tozasertib; first compound 1 µM)	relative viability (AZD8055 + Foretinib; first compound 0.01 µM)	relative viability (AZD8055 + Foretinib; first compound 0.03162 µM)	relative viability (AZD8055 + Foretinib; first compound 0.1 µM)	relative viability (AZD8055 + Foretinib; first compound 0.3162 µM)	relative viability (AZD8055 + Foretinib; first compound 1 µM)	relative viability (AZD8055 + AZD7762; first compound 0.01 µM)	relative viability (AZD8055 + AZD7762; first compound 0.03162 µM)	relative viability (AZD8055 + AZD7762; first compound 0.1 µM)	relative viability (AZD8055 + AZD7762; first compound 0.3162 µM)	relative viability (AZD8055 + AZD7762; first compound 1 µM)	relative viability (AZD8055 + Luminespib; first compound 0.01 µM)	relative viability (AZD8055 + Luminespib; first compound 0.03162 µM)	relative viability (AZD8055 + Luminespib; first compound 0.1 µM)	relative viability (AZD8055 + Luminespib; first compound 0.3162 µM)	relative viability (AZD8055 + Luminespib; first compound 1 µM)
NCI-H838	0.293	0.27	0.248	0.184	0.204	1	0.913	0.597	0.398	0.347	1.06	0.932	0.85	0.711	0.659	0.317	0.223	0.234	0.156	0.196
NCI-H1355	0.483	0.5	0.399	0.278	0.228	0.865	0.77	0.712	0.332	0.278	0.856	0.663	0.594	0.288	0.248	0.601	0.369	0.234	0.238	0.206
NCI-H1395	0.752	0.581	0.562	0.488	0.44	0.982	0.774	0.835	0.505	0.528	0.384	0.405	0.443	0.34	0.419	0.669	0.379	0.684	0.445	0.36
NCI-H1437	0.437	0.458	0.496	0.373	0.238	1.38	1.37	1.24	0.869	0.482	1.16	1.1	1.12	0.568	0.494	1.28	1.26	1.23	0.775	0.365
NCI-H1651	0.695	0.64	0.694	0.414	0.317	0.702	0.774	0.575	0.363	0.263	0.499	0.431	0.424	0.237	0.161	0.925	0.798	0.779	0.412	0.313
NCI-H1666	0.623	0.862	0.589	0.523	0.51	0.981	1	0.969	0.694	0.615	0.945	1.09	0.908	0.76	0.698	1.06	1.03	0.977	0.772	0.693
NCI-H1734	0.234	0.26	0.23	0.194	0.196	0.893	0.748	0.565	0.312	0.221	0.549	0.361	0.273	0.181	0.15	0.199	0.167	0.194	0.151	0.183
NCI-H1755	0.551	0.555	0.449	0.429	0.437	0.885	0.788	0.698	0.485	0.373	0.625	0.401	0.416	0.364	0.33	0.43	0.417	0.361	0.263	0.251

From the supplement of paper PMC10307832
